Laboratory results as given in ChEMBL document CHEMBL1151103, “Studies on cytotoxic constituents in pericarps of Mallotus japonicus, Part III” (1988).
Values after ≈ are worked out from the molar mass of the structure shown.

system: KB; experiment: Cytotoxicity against human KB cells; format: functional; conditions: read-out: ED50 (the source's name)

Which EC50 does the source give for COc1c(C)c(OC(C)=O)c(C(C)=O)c(OC(C)=O)c1Cc1c(OC(C)=O)c2c(c(C(=O)C(C)C)c1OC(C)=O)OC(C)(C)C=C2 here?
The EC50 was 2.65 µg/mL (≈ 4.15 µM).

How did the EC50 turn out when COc1c(C)c(O)c(C(C)=O)c(OC)c1Cc1c(O)c(C(=O)C(C)C)c2c(c1OC)C=CC(C)(C)O2 was run?
The EC50 was 5.5 µg/mL (≈ 11 µM).

Which EC50 does the source give for CCCC(=O)c1c(O)c(Cc2c(OC)c(C)c(O)c(C(C)=O)c2OC)c(OC)c2c1OC(C)(C)C=C2 here?
The EC50 was 5.9 µg/mL (≈ 11.8 µM).

Which EC50 does the source give for COc1c(C)c(O)c(C(C)=O)c(O)c1Cc1c(O)c2c(c(C(=O)C(C)C)c1O)OC(C)(C)C=C2 [ISOBUTYRYLMALLOTOCHROMENE] here?
The EC50 was 0.4 µg/mL (≈ 0.85 µM).

For CCCC(=O)c1c(O)c(Cc2c(O)c(C(C)=O)c(O)c(C)c2OC)c(O)c2c1OC(C)(C)C=C2 [BUTYRYLMALLOTOCHROMENE], which EC50 is on record?
Its EC50 is 3.3 µg/mL (≈ 7.01 µM).

How did the EC50 turn out when CCCC(=O)c1c2c(c(OC(C)=O)c(Cc3c(OC)c(C)c(OC(C)=O)c(C(C)=O)c3OC(C)=O)c1OC(C)=O)C=CC(C)(C)O2 was run?
The EC50 was 2.55 µg/mL (≈ 3.99 µM).
